In patent US20230407373A1 (priority 2020, published 2023):
Read-outs that look alike come from different tables or passages of the source.

Assays:
[1] = test system: SARS-CoV-2 gRNA and sgRNAs; type: binding; details: for target (unweighted spectral count in RNP capture): Probe II capture, LC-MS/MS LFQ; for background (unweighted spectral count in control): no-probe control pull-down, used as background for Probe II
[2] = test system: HCoV-OC43 gRNA and sgRNA; type: binding; details: for target (unweighted spectral count): OC43 Probe II, infected cells
[3] = test system: SARS-CoV-2; type: cell-based; details: Calu-3 cells, 50 nM siRNA, RT-qPCR, relative to siNC
[4] = test system: gRNA of HCoV-OC43; type: binding; details: type g_36_m, 36 hpi, Probe I; for target (spectral count): HCoV-OC43-infected HCT-8 cells; for background (spectral count): uninfected-probe control
[5] = test system: SARS-CoV-2 gRNA; type: binding; details: […]; LC-MS/MS; Probe I sample (first 199 lines of Table 2)

Substance	target (unweighted spectral count in RNP capture) [1]	background (unweighted spectral count in control) [1]	target (unweighted spectral count, OC43 Probe II capture) ([2]; 24 hpi, type n_24_v, tested against no-probe control, FDR<10%)	target (unweighted spectral count, OC43 Probe II) ([2]; type n_48_v, 48 hpi, OC43 Probe II capture on infected cells)	background (unweighted spectral count, no-probe control) ([2]; type n_48_v, 48 hpi, no-probe control on infected cells)	change in viral RNA levels (gRNA, N sgRNA) after siRNA depletion [3]	target (spectral count) [4]	background (spectral count) [4]	target (unweighted spectral count) ([2]; 12 hpi (type n_12_v), tested against no-probe control)	target (unweighted spectral count) ([2]; 24 hpi (type n_24_v), tested against no-probe control)	target (unweighted spectral count of the protein in the RNP capture) [5]
TRIM25: host protein, UniProt Q14258	20	1	5	13	3	increased viral RNAs	14	1			
YBX3: host protein, UniProt P16989	73	1					13	2	7	10	41
